According to paper PMC10766610, “DCAF1-based PROTACs with activity against clinically validated targets overcoming intrinsic- and acquired-degrader resistance” (Nature Communications, 2024):
Read-outs that look alike come from different tables or passages of the source.

Legend:
[1] = Viability by FSC/SSC gate (flow cytometry) in TMD8 BTK-GFP/mCh cells; format: cell-based, human; details: human, TMD8 BTK-GFP/mCh cells, TMD8 BTK-GFP/mCh, 24 h
Description: For flow cytometry measurements, 25,000 exponentially growing TMD8 BTK-GFP/mCh cells were plated in 100 μL of each well of a 96-well plate and grown for 24 h. Cells were then dosed with corresponding compounds and doses from 10 mM DMSO stock for 24 h, after which GFP and mCherry fluorescence was read with a Beckmann Coulter Cytoflex. For competition experiment, both compounds were added at the same time and dosed for 24 h. Cells were gated based on Forward & Side Scatter and selection for Single cells using SSC-A vs. SSC-H. Further, the population of viable cells was defined by the forward & side-scatter characteristics of DMSO-treated cells. […] Effects on viability were measured by the reduction of the percentage of cells included in this viable-population gate with increasing doses of compound tested. Degradation of BTK was calculated based on subtracting background (BG) fluorescence of parental TMD8 signal via (GFP-BG)/(mCherry-BG) of viable cells. Median ratios of three technical (different wells) replicates were used to calculate daily averages. Each compound dose–response was generated via three biological replicates (different days of experiment). Degradation curve parameters (DC50 & Abs. DC50 & max. Deg) were extracted using GraphPad Prism’s 4-parameter logistic curve fitting.
The viability window was determined by measuring the GI50 of viability based on the percentage of cells included in the viable gate and comparing it to the DC50 of degradation. The fold-change difference describing this window is [GI50 Viability / DC50 Degradation], where values above 1 indicate a positive (lower DC50 degradation than AC50 viability) window.

DCAF1(WDR) + BTK = target: T1, DCAF1(WDR) + BTK (Homo sapiens, UniProt Q06187+Q9Y4B6, E1398S); assay: SPR ternary binding assay, immobilized DCAF1(WDR), BTK (389-659) in buffer; details: Fig. 6b
T1 construct: BTK (389-659) or BRD9; His6 (C); His (PreScission site) (N); made in house; host or cells: Sf9 insect cells (both chains)
Text: Supplementary figure 8. SPR data of binary and ternary DCAF1-BTK PROTACs
without additional BTK as analytes. […] In
the middle panel the steady state fit responses are blotted against the PROTAC concentrations The
Source data are provided as a Source Data file

[2] = target: T2, DCAF1(WDR) with additional 10 µM BTK (Homo sapiens, UniProt Q06187+Q9Y4B6, E1398S); assay: DCAF1 TR-FRET, cooperative format with 10 µM BTK; format: binding; details: cooperative format (+ BTK in Fig. 6b); ± SD (n); read-out: IC50 Alpha DCAF1 TR-FRET
T2 construct: 2 nM human DCAF1(1073-1399)_E1398S-Avi-His; human BTK (G389-S659); His6 (C); His (PreScission site) (N); made in house; host or cells: Sf9 insect cells (both chains)
Description: Competition assay conditions consist of 20 µL total volume in white 384-well plates (Greiner), in 30 mM phosphate buffer pH 7.4 containing 140 mM NaCl, 0.01% Tween20, 1 mM TCEP and 1% final DMSO. Tested compounds at 14 different concentrations were pre-incubated at 22 °C for 30 min with a large excess of 10 µM human BTK (G389-S659) or 10 µM human BRD9-BD(130-250) in the cooperative assay or with buffer in standard binary assay. […] Samples were then incubated at 22 °C for 30 min before reading using a Tecan infinite M-1000 or PheraStar FSX (excitation 340 nm, emission 490 and 520 nm). DCAF1 protein was omitted in the negative control. IC50 fitting was carried out using an in-house developed software (Novartis Helios software application, unpublished, a publicly available alternative would be e.g., Graphpad Prism) using the methods described by Fomenko et al.[93] (regression algorithms for nonlinear dose-response curve fitting). Following normalization of activity values for the wells to % inhibition (% inhibition = [(high control-sample)/(high control-low control)] × 100). Data analysis could also be carried out using GraphPad Prism without prior normalization. The reported IC50 values are the average of at least two independent experiments.

BTK = BTK (Homo sapiens, UniProt Q06187); assay: Intracellular BTK engagement NanoBRET, intact HEK293A cells; format: cell-based; details: 2 h, read-out: IC50 BTK target engagement
Description: Thus, HEK293A cells were batch-transfected by adding 1 μg pLenti6 BTK-Nanoluc vector and 9 μg Transfection Carrier DNA (pcDNA3.1 Hygro+) to 1 mL of Opti-MEM without phenol red (Thermo Fisher). After addition of 40 μL ViaFect (Promega) and incubation for 20 min, the DNA:lipid mixture was added to trypsinized HEK293A cells suspended at 2 × 10^5/mL in 10 ml growth medium. 100 μL of the resulting cell:DNA:lipid suspension was then seeded at 2 × 10^4 cells/well into white, clear-bottom 96-well plates (Costar) that were pre-coated with poly-D-Lysine by incubation for 60 min with 30 μL of a sterile-filtered solution of 0.1 mg PDL (Mpbio) dissolved in phosphate-buffered saline, followed by a wash with 200 μL sterile phosphate-buffered and airdrying. […] To measure BRET, NanoBRET NanoGlo substrate (Promega, final dilution of 1:1000) and Extracellular NanoLuc Inhibitor (Promega, final concentration 20 μM) were added, followed by quantification of donor and acceptor luminescence emission on a Pherastar FX (BMG Labtech) multimode reader using 460 nm band-pass and 610 nm long-pass filters, respectively. […]
The mBU values for each treated sample was then divided by the average mBU value determined based on four DMSO-treated vehicle control samples and multiplied by 100 to arrive at % of vehicle-treated control. […]

T2 sequence (Q9Y4B6 1073-1399 E1398S): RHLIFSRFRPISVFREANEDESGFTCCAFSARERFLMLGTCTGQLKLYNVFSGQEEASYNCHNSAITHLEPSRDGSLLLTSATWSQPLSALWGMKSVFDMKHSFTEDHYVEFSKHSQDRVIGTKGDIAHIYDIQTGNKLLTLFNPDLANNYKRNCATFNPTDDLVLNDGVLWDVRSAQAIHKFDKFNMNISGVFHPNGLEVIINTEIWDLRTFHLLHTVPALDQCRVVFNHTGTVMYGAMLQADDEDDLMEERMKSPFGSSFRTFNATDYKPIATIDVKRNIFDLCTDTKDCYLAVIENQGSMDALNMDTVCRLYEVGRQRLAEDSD
T2 sequence (Q06187 389-659): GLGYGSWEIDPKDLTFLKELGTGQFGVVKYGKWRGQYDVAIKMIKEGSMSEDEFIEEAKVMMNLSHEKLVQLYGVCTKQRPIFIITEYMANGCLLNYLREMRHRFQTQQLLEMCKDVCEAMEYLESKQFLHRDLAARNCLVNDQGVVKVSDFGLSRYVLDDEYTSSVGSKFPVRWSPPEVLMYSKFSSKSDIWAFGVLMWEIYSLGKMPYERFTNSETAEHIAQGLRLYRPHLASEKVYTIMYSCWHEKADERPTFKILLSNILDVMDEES
T1 sequence (Q9Y4B6 1073-1399 E1398S): as the sequence (Q9Y4B6 1073-1399 E1398S) above
T1 sequence (Q06187 389-659): as the sequence (Q06187 389-659) above
BTK, sequence (Q06187 2-659 limits assumed): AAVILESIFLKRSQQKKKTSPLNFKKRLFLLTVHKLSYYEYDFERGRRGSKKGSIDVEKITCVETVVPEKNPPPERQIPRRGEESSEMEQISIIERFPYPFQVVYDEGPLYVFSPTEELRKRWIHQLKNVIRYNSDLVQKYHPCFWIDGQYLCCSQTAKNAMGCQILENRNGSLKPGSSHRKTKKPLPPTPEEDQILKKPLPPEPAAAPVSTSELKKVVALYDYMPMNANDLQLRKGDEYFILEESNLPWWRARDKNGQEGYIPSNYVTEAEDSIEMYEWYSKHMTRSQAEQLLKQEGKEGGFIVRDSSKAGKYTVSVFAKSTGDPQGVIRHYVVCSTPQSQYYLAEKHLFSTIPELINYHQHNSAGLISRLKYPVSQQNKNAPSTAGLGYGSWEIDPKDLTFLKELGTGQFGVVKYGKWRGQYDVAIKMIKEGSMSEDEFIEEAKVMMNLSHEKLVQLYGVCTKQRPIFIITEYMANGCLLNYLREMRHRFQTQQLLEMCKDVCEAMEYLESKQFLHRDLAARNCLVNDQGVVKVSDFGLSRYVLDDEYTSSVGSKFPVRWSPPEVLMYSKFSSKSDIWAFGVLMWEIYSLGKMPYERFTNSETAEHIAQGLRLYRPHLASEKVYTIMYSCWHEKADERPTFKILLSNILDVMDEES

| Compound | GI50 at 24 h ([1]; read-out: Abs GI50) [nM] | GI50 at 24 h ([1]; read-out: GI50) [nM] | Kd (DCAF1(WDR) + BTK) [nM] | IC50 [2] [nM] | IC50 (BTK) [nM] | GI50 at 24 h ([1]; read-out: GI50 viability) [nM] |
| --- | --- | --- | --- | --- | --- | --- |
| Cc1c(NC(=O)c2ccc(C(C)(C)O)cc2F)cc(F)cc1-c1ncnc2[nH]c(-c3ccc(CNCCOCCOCCOCCOCCOCCOCCOCCOCCOCCOCCOCCOCCC(=O)N4CCN(c5ccc6c(NCCN)nc(C7(c8ccc(Cl)cc8)CCCCC7)nc6c5)CC4)cc3)cc12 [DBt-5] | 4120 | 4240 | 480 | 282 ± 84 | 392 |  |
| Cc1c(NC(=O)N2CC(O)(CC(C)(C)C)C2)cc(F)cc1-c1ncnc2[nH]c(-c3cnn(CC(=O)N4CCC5(CC4)CN(CCNC(=O)CCCC(=O)N4CCN(c6ccc7c(NCCN)nc(C8(c9ccc(Cl)cc9)CCCCC8)nc7c6)CC4)CCO5)c3)cc12 [DBt-10] |  | > 25000 | 33 | 82 ± 39 | 1680 |  |
| Cc1nc(Nc2ncc(C(=O)Nc3c(C)cccc3Cl)s2)cc(N2CCC(OC3CCN(CCCCCCCC(=O)N4CCN(c5ccc6c(NCCN)nc(C7(c8ccc(Cl)cc8)CCCCC7)nc6c5)CC4)CC3)CC2)n1 [DDa-1] | 1200 |  |  |  |  | 1200 |
| CC(=O)N1CCN(c2ccc3c(NCCN)nc(C4(c5ccc(Cl)cc5)CCCCC4)nc3c2)CC1 [compound 13] | 5220 | 5040 |  |  |  |  |
